Here are results for two molecules from PMC7811981 (European Journal of Drug Metabolism and Pharmacokinetics, 2020).

Read-outs that look alike come from different tables or passages of the source.

The conditions of data set [1]: phase I studies; cited from earlier work.
The test system of a further data set is P-glycoprotein (P-gp). Particulars: cited from earlier work.
Data set [2] is classed as in vivo, healthy adults (human). Particulars: for AUC(0-inf) / Cmax / Tmax / half-life / AUC(0-t): human, plasma; for AUC(0-t): Period 2: omadacycline with verapamil, linear mixed-effect model.
A further data set concerns P-gp. It is filed as in vivo, healthy adults (human). The note with it: human, not told, po.
Data set [3] can be described thus: Safety and tolerability assessments. The format is in vivo, healthy adults (human). The note with it: for Safety and tolerability: healthy adults.
The conditions of data set [4]: period 2, single oral 240 mg verapamil ER; data not shown.
Where [5] appears, read: Period 2/Period 1 (with verapamil / alone).

For the molecule `CN(C)c1cc(CNCC(C)(C)C)c(O)c2c1C[C@H]1C[C@H]3[C@H](N(C)C)C(O)=C(C(N)=O)C(=O)[C@@]3(O)C(O)=C1C2=O` [Omadacycline], the “Exposure of 300 mg oral dose versus 100 mg IV dose” value in data set [1] is “comparable exposure”. In the data set with P-glycoprotein (P-gp) (in vitro studies), the P-gp interaction result is given as “substrate, but not as an inhibitor” and the “Propensity to permeate across the gastrointestinal (GI) tract” value is “low propensity to permeate”. In the data set on P-glycoprotein (P-gp) (in vitro transporter studies in CaCo cells), the P-gp interaction entry was “substrate of P-gp (but not an inhibitor or inducer)”. Also, in data set [2] (Period 1: omadacycline alone, 300 mg oral, N = 12), the “λz terminal phase rate constant, arithmetic mean (arithmetic coefficient of variation)” value is given as 0.1 (11.2) l/h. Moreover, in data set [2] (setting [5]), the “AUC0–24, ratio of geometric LS mean” value came out at 118.5%; the “AUC0–inf, ratio of geometric LS mean” value is given as 124.6%; the “AUC0–t, ratio of geometric LS mean” value is 118.6%; the “Cmax, ratio of geometric LS mean” value was 113.6%. For the same molecule, in data set [2] (Period 2: omadacycline with verapamil ER 240 mg, N = 10), the “λz terminal phase rate constant, arithmetic mean (arithmetic coefficient of variation)” value is 0.05 (10.7) l/h. Also, the “Increase in systemic exposure to omadacycline (AUC0–24, AUC0–t, AUC0–inf, Cmax)” value in data set [2] (after single oral 240 mg verapamil ER compared with omadacycline alone) was 14–25%. For the same molecule, the “Plasma concentrations measurable up to (last sampling time)” value in data set [2] (both treatment periods, all instances) was found to be 24 h. Also, in data set [2] (both treatment periods, mean plasma concentration-time profiles), the “Time postdose within which Cmax was attained (visual inspection)” value is reported as no more than 3 h. Also, in data set [2] (oral), the AUC(0-inf) (as a rule, total exposure, with the tail of the curve extrapolated) is 10800 ng·h/mL and the Cmax (usually the maximum level reached in the sampled fluid or tissue) worked out at 607 ng/mL. Moreover, in data set [2] (oral, 240 mg), the AUC(0-inf) was determined as 10800 ng·h/mL; the Cmax was 596 ng/mL; the Tmax – broadly, the time at which the peak concentration occurs – worked out at 2.8 h; the half-life (as a rule, the time needed for the level to fall by half in the phase considered) is 14 h. In data set [2] (oral, 300 mg), this molecule had an AUC(0-inf) of 8690 ng·h/mL and a Cmax of 534 ng/mL. In addition, in data set [2] (oral, AUC0–24, geometric LS mean, N = 10), the AUC(0-t) was 7340 ng·h/mL. Also, in data set [2] (oral, AUC0–t, geometric LS mean, N = 10), the AUC(0-t) turned out to be 7340 ng·h/mL. In data set [2] (po, 300 mg), the area under the curve AUC(0-inf) stood at 8690 ng·h/mL, the highest level (Cmax) was 534 ng/mL, the Tmax is 2.8 h and the half-life was 12.7 h. In addition, in data set [2] (period 2 (after verapamil) vs period 1), the “AUC measures (AUC0–24, AUC0–t, AUC0–inf) higher than omadacycline alone” value is listed as 18–25%. Further, the “Increase in geometric mean of AUC0–inf” value in data set [2] (verapamil dosing compared with omadacycline alone) is recorded as 18–25%. In addition, in data set [2] (with verapamil, relative increase), the “Increase in bioavailability by inhibition of P-gp (as much as)” value is given as no more than 25.0%. Moreover, the bioavailability (in general, dose-corrected exposure relative to a reference, in per cent) in the data set on P-gp was roughly 43.1%. Moreover, the “Clinical laboratory test results, vital sign measurements, physical examination findings, 12-lead ECG results” value in data set [3] (omadacycline alone and with verapamil ER) is listed as “no clinically relevant findings”. Besides, the Safety and tolerability result in data set [3] (single oral 300 mg omadacycline plus 240 mg verapamil ER) is “safe and well tolerated”. Besides, the Safety and tolerability entry in data set [3] (single oral dose 300 mg omadacycline alone) is “safe and well tolerated”.
For the molecule `COc1ccc(CCN(C)CCCC(C#N)(c2ccc(OC)c(OC)c2)C(C)C)cc1OC` (centres unmarked) [verapamil], the “Plasma concentrations measurable from 2 h after administration up to (last sampling time)” value in data set [4] was 24 h.
